Test results: patent US20100298141A1, “SUBSTITUTED PYRIDINE N-OXIDE HERBICIDES” (E. I. DU PONT DE NEMOURS AND COMPANY, priority 2007, published 2010)

Assays:
crabgrass = assay: Test A pre-/postemergence greenhouse test; format: in vivo, Digitaria sanguinalis; settings: for Plant response rating, Crabgrass, Large: 0 to 100 scale where 0 is no effect and 100 is complete control; for Crabgrass, Large plant response rating: 0 to 100 scale
Method in brief: (§1)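 Greenhouse herbicide screen, pre- and postemergence in parallel. Soil: loam plus sand. Formulation: non-phytotoxic solvent mix with surfactant. Postemergence stage: one to two leaves, 2–10 cm height. Evaluation: visual injury, compared with untreated controls, about 10 days after treatment.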

morningglory = assay: Test A pre-/postemergence greenhouse test; format: in vivo, Ipomoea spp.; settings: for Plant response rating, Morningglory: 0 to 100 scale where 0 is no effect and 100 is complete control; for Morningglory plant response rating: 0 to 100 scale
Method in brief: as §1

redroot pigweed = assay: Test A pre-/postemergence greenhouse test; format: in vivo, Amaranthus retroflexus; settings: for Plant response rating, Pigweed: 0 to 100 scale where 0 is no effect and 100 is complete control; for Pigweed plant response rating: 0 to 100 scale
Method in brief: as §1

blackgrass = assay: Test C pre-/postemergence test; format: in vivo, Alopecurus myosuroides
Method in brief: (§2)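 Test chemicals were formulated with surfactant in a non-phytotoxic solvent and sprayed both on freshly planted seeds (preemergence) and on 1- to 4-leaf plants of 2–18 cm (postemergence). Flooded-paddy pots received compound directly into 3 cm of standing water, maintained for the test.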

green foxtail = assay: Test C pre-/postemergence test; format: in vivo, Setaria viridis
Method in brief: as §2

Italian ryegrass = assay: Test C pre-/postemergence test; format: in vivo, Lolium multiflorum
Method in brief: as §2

wheat = assay: Test C pre-/postemergence test; format: in vivo, Triticum aestivum
Method in brief: as §2

wild oat = assay: Test C pre-/postemergence test; format: in vivo, Avena fatua
Method in brief: as §2

corn = assay: Test C pre-/postemergence test; format: in vivo, Zea mays
Method in brief: as §2

woolly cupgrass = assay: Test C pre-/postemergence test; format: in vivo, Eriochloa villosa
Method in brief: as §2

Goosegrass = assay: Test C pre-/postemergence test; format: in vivo, Eleusin indica
Method in brief: as §2

eastern black nightshade = assay: Test C pre-/postemergence test; format: in vivo, Solanum ptycanthum
Method in brief: as §2

yellow nutsedge = assay: Test C pre-/postemergence test; format: in vivo, Cyperus esculentus
Method in brief: as §2

common ragweed = assay: Test C pre-/postemergence test; format: in vivo, Ambrosia elation
Method in brief: as §2

[1] = tested on: common (oilseed) sunflower; assay: Test C pre-/postemergence test; format: in vivo, Helianthus annuus
Method in brief: as §2

umbrella sedge = assay: Test C flooded paddy test; format: in vivo, Cyperus difformis; settings: Flood
Method in brief: (§3)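 Flooded 3 cm over soil; compound into paddy water; depth kept constant. Greenhouse 13–15 d.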

duck salad = assay: Test C flooded paddy test; format: in vivo, Heteranthera limosa; settings: Flood
Method in brief: as §3

[2] = Postemergence, 500 g ai/ha, 0 is no effect, 100 is complete control
[3] = Preemergence, 125 g ai/ha, 0 no effect, 100 complete control
[4] = 62 g ai/ha, Preemergence, scale 0 to 100
[5] = 125 g ai/ha, preemergence, scale 0 (no effect) to 100 (complete control)
[6] = Preemergence, 31 g ai/ha, scale 0 to 100 (0 no effect, 100 complete control)
[7] = preemergence, 250 g ai/ha, scale 0 (no effect) to 100 (complete control)
[8] = 62 g ai/ha, scale 0 to 100 (0 no effect, 100 complete control)
[9] = 250 g ai/ha, scale 0 to 100, 0 no effect, 100 complete control, 13 to 15 days

## Cc1cc[n+]([O-])c(S(=O)(=O)Cc2c(C(F)(F)F)nn(C)c2OCC(F)F)c1 [Compound 94]
crabgrass; Postemergence, 125 g ai/ha
  Plant response rating, Crabgrass, Large: 70
crabgrass; [2]
  Crabgrass, Large plant response rating: 90
crabgrass; [3]
  Crabgrass, Large plant response rating: 90
crabgrass; Preemergence, 500 g ai/ha
  Plant response rating, Crabgrass, Large: 100
morningglory; Postemergence, 125 g ai/ha
  Plant response rating, Morningglory: 50
morningglory; [2]
  Morningglory plant response rating: 60
morningglory; [3]
  Morningglory plant response rating: 50
morningglory; Preemergence, 500 g ai/ha
  Plant response rating, Morningglory: 100
Redroot pigweed; Postemergence, 125 g ai/ha
  Plant response rating, Pigweed: 60
Redroot pigweed; [2]
  Pigweed plant response rating: 80
Redroot pigweed; [3]
  Pigweed plant response rating: 100
Redroot pigweed; Preemergence, 500 g ai/ha
  Plant response rating, Pigweed: 100
blackgrass; [4]
  Blackgrass plant response rating: 95
blackgrass; [5]
  Blackgrass plant response rating: 100
blackgrass; [6]
  Plant response rating, Blackgrass: 70
blackgrass; [7]
  Blackgrass plant response rating: 100
Green foxtail; [4]
  Foxtail, Green plant response rating: 100
Green foxtail; [5]
  Foxtail, Green plant response rating: 100
Green foxtail; [6]
  Plant response rating, Foxtail, Green: 98
Green foxtail; [7]
  Foxtail, Green plant response rating: 100
Italian ryegrass; [4]
  Ryegrass, Italian plant response rating: 70
Italian ryegrass; [5]
  Ryegrass, Italian plant response rating: 90
Italian ryegrass; [6]
  Plant response rating, Ryegrass, Italian: 0
Italian ryegrass; [7]
  Ryegrass, Italian plant response rating: 98
wheat; [4]
  Wheat plant response rating: 60
wheat; [5]
  Wheat plant response rating: 80
wheat; [6]
  Plant response rating, Wheat: 30
wheat; [7]
  Wheat plant response rating: 80
Wild oat; [4]
  Oat, Wild plant response rating: 65
Wild oat; [5]
  Oat, Wild plant response rating: 65
Wild oat; [6]
  Plant response rating, Oat, Wild: 35
Wild oat; [7]
  Oat, Wild plant response rating: 98
corn; [4]
  Corn plant response rating: 10
corn; [5]
  Corn plant response rating: 90
corn; [7]
  Corn plant response rating: 95
Woolly cupgrass; [4]
  Cupgrass, Woolly plant response rating: 90
Woolly cupgrass; [5]
  Cupgrass, Woolly plant response rating: 100
Woolly cupgrass; [6]
  Plant response rating, Cupgrass, Woolly: 10
Woolly cupgrass; [7]
  Cupgrass, Woolly plant response rating: 100
Goosegrass; [4]
  Goosegrass plant response rating: 100
Goosegrass; [5]
  Goosegrass plant response rating: 100
Goosegrass; [6]
  Plant response rating, Goosegrass: 95
Goosegrass; [7]
  Goosegrass plant response rating: 100
Eastern black nightshade; [4]
  Nightshade plant response rating: 55
Eastern black nightshade; [5]
  Nightshade plant response rating: 100
Eastern black nightshade; [6]
  Plant response rating, Nightshade: 50
Eastern black nightshade; [7]
  Nightshade plant response rating: 100
Yellow nutsedge; [4]
  Nutsedge, Yellow plant response rating: 55
Yellow nutsedge; [5]
  Nutsedge, Yellow plant response rating: 60
Yellow nutsedge; [6]
  Plant response rating, Nutsedge, Yellow: 0
Yellow nutsedge; [7]
  Nutsedge, Yellow plant response rating: 98
Common ragweed; [4]
  Ragweed plant response rating: 100
Common ragweed; [5]
  Ragweed plant response rating: 100
Common ragweed; [6]
  Plant response rating, Ragweed: 60
Common ragweed; [7]
  Ragweed plant response rating: 100
[1]; [4]
  Sunflower plant response rating: 0
[1]; [5]
  Sunflower plant response rating: 45
[1]; [6]
  Plant response rating, Sunflower: 0
[1]; [7]
  Sunflower plant response rating: 80
Umbrella sedge; [8]
  Plant response rating, Sedge, Umbrella: 0
Umbrella sedge; [9]
  Plant response rating, Sedge, Umbrella: 90
Duck salad; [8]
  Plant response rating, Ducksalad: 0
Duck salad; [9]
  Plant response rating, Ducksalad: 75
